From patent US11136321B2, “Tricyclic compounds” (ALIGOS THERAPEUTICS, INC., priority 2019, dated 2021)

System: HBV
Experiment: HBV-DNA antiviral assay using HepG2.117 cells
Format: cell-based, genotype D HBV
Details: Hepatitis B virus, 72 h, intracellular HBV DNA by qPCR, 3 days incubation
Method: The following assay procedure describes the HBV antiviral assay, using HepG2.117 cells, which carry a stably integrated genotype D HBV genome under the control of a Tet-off promoter, and intracellular HBV DNA quantification as endpoint. Cell viability is assessed in parallel by measuring the intracellular ATP content using ATPlite (Perkin Elmer).
On day 0, HepG2.117 cells (which are maintained in routine cell culture with doxycycline present in the medium at a final concentration of 1 μg/mL) were seeded in 96-well plates (white with clear bottom) at a density of 2.0×10^4 cells/well (0.1 mL/well) in medium without doxycycline to induce pgRNA transcription and subsequent formation of HBV particles. The cells were incubated at 37° C. and 5% CO2.
On day 1, medium was removed from each well, the test articles were diluted in culture medium without doxcycyline and 100 μL was added to cell culture wells (9 concentrations, 4-fold dilution). For each plate, 6 untreated (merely DMSO) wells were included. The final concentration of DMSO in the culture medium was 2%. Each plate was prepared in duplicate (one for HBV DNA extraction, one for ATPlite measurement). The cells were incubated at 37° C. and 5% CO2 for 3 days.
On day 4, cell viability was assessed using ATPlite and cell lysates were prepared for HBV DNA extraction and subsequent quantification by qPCR.
Medium was removed from each well and 100 μL of 0.33% NP-40 in H2O was added to each well. Plates were sealed, incubated at 4° C. for 5 mins, vortexed extensively and centrifuged briefly. Next, 35 μL of lysate was added to 65 μL QuickExtract DNA Extraction Solution (Epicentre) in a PCR plate for each well. PCR plate was incubated at 65° C. for 6 mins, 98° C. for 2 mins and finally cooled to 4° C. HBV DNA was then quantified by qPCR with HBV-specific primers and probes as specified in Table 1 using the Bio-Rad SSOAdvanced Universal Probes Supermix on a CFX96 machine (Bio-Rad). The PCR cycle program consisted of 95° C. for 3 mins, followed by 40 cycles at 95° C. for 10 sec and 60° C. for 30 sec.
A DNA standard was prepared by dilution of an IDT gBlock corresponding to the amplicon with concentrations ranging from 10^2 to 10^8 copies/input (i.e. per 4 μL) and used to generate a standard curve by plotting Cq values vs. HBV DNA standard concentration. The quantity of HBV DNA in each sample was determined by interpolating from the standard curve.
Cell viability was calculated as follows: % Cell viability=(luminescence value of test sample)/(average luminescence value of 2% DMSO control)×100%. HBV DNA inhibition was calculated as follows: 100−(HBV DNA copy number of test sample)/(average HBV DNA copy number of 2% DMSO control)×100%. No normalization to entecavir was required due to the excellent dynamic window of this assay. The CC50, EC50 and EC90 values were determined by dose-response curves fitted by GraphPad Prism using “log (agonist) vs. response—Variable slope”.

Row | Compound | EC50
1 | CNC(=O)c1ccc(-n2c(=O)c3c(n4ncc(Cc5ccc(OC(F)(F)F)cc5)c24)CN(C(=O)c2ccc(Cl)c(Cl)c2)CC3)cc1 [Compound 36, 4-[12-(3,4-dichlorobenzoyl)-8-oxo-5-[[4-(trifluoromethoxy)phenyl]methyl]-2,3,7,12-tetrazatricyclo [7.4.0.0 2,6]trideca-1(9),3,5-trien-7-yl]-N-methyl-benzamide] | 0.1 to 0.5 µM
2 | CNC(=O)c1ccc(-n2c(=O)c3c(n4ncc(Cc5ccccc5)c24)CN(C(=O)c2ccc(Br)c(C#N)c2)CC3)cc1 [Compound 37, 4-[5-benzyl-12-(4-bromo-3-cyano-benzoyl)-8-oxo-2,3,7,12-tetrazatricyclo [7.4.0.0 2,6]trideca-1(9),3,5-trien-7-yl]-N-methyl-benzamide] | ≤ 0.1 µM
3 | CNC(=O)c1ccc(-n2c(=O)c3c(n4ncc(Cc5ccccc5)c24)CN(C(=O)c2ccc(Br)c(Cl)c2)CC3)cc1Cl [Compound 38, 4-[5-benzyl-12-(4-bromo-3-chloro-benzoyl)-8-oxo-2,3,7,12-tetrazatricyclo [7.4.0.0 2,6]trideca-1(9),3,5-trien-7-yl]-2-chloro-N-methyl-benzamide] | ≤ 0.1 µM
4 | CNC(=O)c1ccc(-n2c(=O)c3c(n4ncc(Nc5ccccc5)c24)CN(C(=O)c2ccc(Cl)c(Cl)c2)CC3)cc1 [Compound 39, 4-[5-anilino-12-(3,4-dichlorobenzoyl)-8-oxo-2,3,7,12-tetrazatricyclo [7.4.0.0 2,6]trideca-1(9),3,5-trien-7-yl]-N-methyl-benzamide] | ≤ 0.1 µM
5 | CNC(=O)c1ccc(-n2c(=O)c3c(n4ncc(Nc5ccccc5)c24)CN(C(=O)c2ccc(Br)c(Cl)c2)CC3)cc1 [Compound 40, 4-[5-anilino-12-(4-bromo-3-chloro-benzoyl)-8-oxo-2,3,7,12-tetrazatricyclo [7.4.0.0 2,6]trideca-1(9),3,5-trien-7-yl]-N-methyl-benzamide] | ≤ 0.1 µM
6 | CNC(=O)c1ccc(-n2c(=O)c3c(n4ncc(NCc5ccc(OC(F)F)cc5)c24)CN(C(=O)c2ccc(Cl)c(Cl)c2)CC3)cc1 [Compound 41, 4-[12-(3,4-dichlorobenzoyl)-5-[[4-(difluoromethoxy)phenyl]methylamino]-8-oxo-2,3,7,12-tetrazatricyclo [7.4.0.0 2,6]trideca-1(9),3,5-trien-7-yl]-N-methyl-benzamide] | 0.5 to 5 µM
7 | CNC(=O)c1ccc(-n2c(=O)c3c(n4ncc(NCc5ccccc5)c24)CN(C(=O)c2ccc(Cl)c(Cl)c2)CC3)cc1 [Compound 42, 4-[5-(benzylamino)-12-(3,4-dichlorobenzoyl)-8-oxo-2,3,7,12-tetrazatricyclo [7.4.0.0 2,6]trideca-1(9),3,5-trien-7-yl]-N-methyl-benzamide] | ≤ 0.1 µM
8 | CNC(=O)c1ccc(-n2c(=O)c3c(n4ncc(Cc5ccc(C#N)cc5)c24)CN(C(=O)c2ccc(Br)c(Cl)c2)CC3)cc1 [Compound 43, 4-(8-(4-bromo-3-chlorobenzoyl)-3-(4-cyanobenzyl)-5-oxo-6,7,8,9-tetrahydropyrazolo[1,5-a]pyrido[4,3-e]pyrimidin-4(5H)-yl)-N-methylbenzamide] | ≤ 0.1 µM
9 | CNC(=O)c1ccc(-n2c(=O)c3c(n4ncc(NCc5ccc(OC(F)(F)F)cc5)c24)CN(C(=O)c2ccc(Cl)c(Cl)c2)CC3)cc1 [Compound 44, 4-[12-(3,4-dichlorobenzoyl)-8-oxo-5-[[4-(trifluoromethoxy)phenyl]methylamino]-2,3,7,12-tetrazatricyclo [7.4.0.0 2,6]trideca-1(9),3,5-trien-7-yl]-N-methyl-benzamide] | 0.1 to 0.5 µM
10 | CNC(=O)c1ccc(-n2c(=O)c3c(n4ncc(NCc5ccc(OC(F)(F)F)cc5)c24)CN(C(=O)c2ccc(Br)c(Cl)c2)CC3)cc1 [Compound 45, 4-[12-(4-bromo-3-chloro-benzoyl)-8-oxo-5-[[4-(trifluoromethoxy)phenyl]methylamino]-2,3,7,12-tetrazatricyclo [7.4.0.0 2,6]trideca-1(9),3,5-trien-7-yl]-N-methyl-benzamide] | ≤ 0.1 µM
11 | CNC(=O)c1ccc(-n2c(=O)c3c(n4ncc(NCc5ccc(OC(F)F)cc5)c24)CN(C(=O)c2ccc(Br)c(Cl)c2)CC3)cc1 [Compound 46, 4-[12-(4-bromo-3-chloro-benzoyl)-5-[[4-(difluoromethoxy)phenyl]methylamino]-8-oxo-2,3,7,12-tetrazatricyclo [7.4.0.0 2,6]trideca-1(9),3,5-trien-7-yl]-N-methyl-benzamide] | ≤ 0.1 µM
12 | CNC(=O)c1ccc(-n2c(=O)c3c(n4ncc(NCc5ccccc5)c24)CN(C(=O)c2ccc(Br)c(Cl)c2)CC3)cc1 [Compound 47, 4-[5-(benzylamino)-12-(4-bromo-3-chloro-benzoyl)-8-oxo-2,3,7,12-tetrazatricyclo [7.4.0.0 2,6]trideca-1(9),3,5-trien-7-yl]-N-methyl-benzamide] | ≤ 0.1 µM
13 | CNC(=O)c1ccc(-n2c(=O)c3c(n4ncc(Cc5ccc(C#N)cc5)c24)CN(C(=O)c2ccc(Cl)c(Cl)c2)CC3)cc1 [Compound 48, 4-[5-[(4-cyanophenyl)methyl]-12-(3,4-dichlorobenzoyl)-8-oxo-2,3,7,12-tetrazatricyclo [7.4.0.0 2,6]trideca-1(9),3,5-trien-7-yl]-N-methyl-benzamide] | ≤ 0.1 µM
14 | NC(=O)c1ccc(-n2c(=O)c3c(n4ncc(NCc5ccccc5)c24)CN(C(=O)c2ccc(Br)c(Cl)c2)CC3)cc1 [Compound 49, 4-[5-(benzylamino)-12-(4-bromo-3-chloro-benzoyl)-8-oxo-2,3,7,12-tetrazatricyclo [7.4.0.0 2,6]trideca-1(9),3,5-trien-7-yl] benzamide] | ≤ 0.1 µM
15 | NC(=O)c1ccc(-n2c(=O)c3c(n4ncc(NCc5ccccc5)c24)CN(C(=O)c2ccc(Cl)c(Cl)c2)CC3)cc1 [Compound 50, 4-[5-(benzylamino)-12-(3,4-dichlorobenzoyl)-8-oxo-2,3,7,12-tetrazatricyclo [7.4.0.0 2,6]trideca-1(9),3,5-trien-7-yl] benzamide] | ≤ 0.1 µM
16 | CNC(=O)c1ccc(-n2c(=O)c3c(n4ncc(NCc5ccc(C#N)cc5)c24)CN(C(=O)c2ccc(Cl)c(Cl)c2)CC3)cc1 [Compound 51, 4-[5-[(4-cyanophenyl)methylamino]-12-(3,4-dichlorobenzoyl)-8-oxo-2,3,7,12-tetrazatricyclo [7.4.0.0 2,6]trideca-1(9),3,5-trien-7-yl]-N-methyl-benzamide] | 0.5 to 5 µM
17 | CNC(=O)c1ccc(-n2c(=O)c3c(n4ncc(NCc5ccc(OCC(N)=O)cc5)c24)CN(C(=O)c2ccc(Br)c(Cl)c2)CC3)cc1 [Compound 52, 4-[5-[[4-(2-amino-2-oxo-ethoxy)phenyl]methylamino]-12-(4-bromo-3-chloro-benzoyl)-8-oxo-2,3,7,12-tetrazatricyclo [7.4.0.0 2,6]trideca-1(9),3,5-trien-7-yl]-N-methyl-benzamide] | 0.1 to 0.5 µM
18 | CNC(=O)c1ccc(-n2c(=O)c3c(n4ncc(NCc5ccc(OCC(N)=O)cc5)c24)CN(C(=O)c2ccc(Cl)c(Cl)c2)CC3)cc1 [Compound 53, 4-[5-[[4-(2-amino-2-oxo-ethoxy)phenyl]methylamino]-12-(3,4-dichlorobenzoyl)-8-oxo-2,3,7,12-tetrazatricyclo [7.4.0.0 2,6]trideca-1(9),3,5-trien-7-yl]-N-methyl-benzamide] | 0.5 to 5 µM
19 | CNC(=O)c1ccc(-n2c(=O)c3c(n4ncc(Nc5ccc(F)cc5)c24)CN(C(=O)c2ccc(Br)c(Cl)c2)CC3)cc1 [Compound 54, 4-[12-(4-bromo-3-chloro-benzoyl)-5-(4-fluoroanilino)-8-oxo-2,3,7,12-tetrazatricyclo [7.4.0.0 2,6]trideca-1(9),3,5-trien-7-yl]-N-methyl-benzamide] | ≤ 0.1 µM
20 | CNC(=O)c1ccc(-n2c(=O)c3c(n4ncc(NCc5ccc(C#N)cc5)c24)CN(C(=O)c2ccc(Br)c(Cl)c2)CC3)cc1 [Compound 55, 4-[12-(4-bromo-3-chloro-benzoyl)-5-[(4-cyanophenyl)methylamino]-8-oxo-2,3,7,12-tetrazatricyclo [7.4.0.0 2,6]trideca-1(9),3,5-trien-7-yl]-N-methyl-benzamide] | 0.1 to 0.5 µM
21 | CNC(=O)c1ccc(-n2c(=O)c3c(n4ncc(Cc5ccccc5)c24)CN(C(=O)c2ccc(Br)cn2)CC3)cc1 [Compound 56, 4-[5-benzyl-12-(5-bromopyridine-2-carbonyl)-8-oxo-2,3,7,12-tetrazatricyclo [7.4.0.0 2,6]trideca-1(9),3,5-trien-7-yl]-N-methyl-benzamide] | 0.5 to 5 µM
